Values after ≈ are worked out from the molar mass of the structure shown. Values joined by “and” are separate entries in the source; they are usually repeats but may differ in a detail not shown here. Equal values may be shown once. Numbered stars: 1 amine (or outer) side, 2 acyl side, 3 side chain; on linkers, the order of the positions; unused ones are H or OH. Bridge positions count the residues as written; N and C are the ends. Square brackets hold non-standard residues; d marks the D form. Peptide text beside a SMILES is read from it. I, II: the chains in the order shown. Actinocin(9to1) = Cc1c2oc3c(C)ccc(C(=O)[*:1])c3nc-2c(C(=O)[*:2])c(N)c1=O; NMeV = CN[C@H](C(=O)O)C(C)C; Sar = CNCC(=O)O
How the values were obtained:
[1] = isolated from Anacardium occidentale; cited from earlier work
DPPH antioxidant assay = assay type: biochemical; details: for Antioxidant IC50 / IC50: DPPH; for Antioxidant IC50: 550 nm; for IC50: value in brackets; for Antioxidant Mg Vit C equivalents/g dry weight: IC50 vit C/IC50 sample × 1000
Experimental: Antioxidant activity of the ethanol extract of S. jambos and compounds was investigated using 1,2-diphenyl-1-picrylhydrazyl (DPPH) antioxidant assay. Following the procedures as described by DuToit et al. for each sample, a dilution series (8 dilutions) was prepared in a 96 well plate by adding distilled water as a dilution medium. Final concentration of the samples ranged from 100 to 0.7 μg/ml. Each concentration was tested in triplicate. Vitamin C was used as a positive control. […] The radical scavenging activity was measured in terms of the amount of antioxidants necessary to decrease the initial DPPH absorbance by 50% (IC50). The IC50 value of each sample was determined graphically by plotting the absorbance of DPPH as a function of the sample concentration in μg/ml. The IC50 is the amount of antioxidant necessary to decrease the initial DPPH absorbance by 50%. The results are expressed as the mg vitamin C equivalents/g dry weight and calculated as follows: […]

[2] = In vitro cytotoxicity assay (XTT), U937; details: human
Experimental: (§1) The mouse melanocytes (B16-F10) cells were cultured in a complete Minimum Essential Eagle’s Medium (MEM) whereas the human U937 cells were cultured in Roswell Park Memorial Institute (RPMI) containing 10% fetal bovine serum (FBS) and 1% gentamycin. B16-F10 (10^5 cells per well) and U937 (10^6 cells per well) were seeded into a 96-well plate. After an overnight incubation at 37°C in 5% CO2 and a humidified atmosphere, the extract, compounds and the positive control (actinomycin D) were added to the cells. […] The highest concentration of positive control (0.05 μg/ml) was serially diluted to eight consecutive wells. The plate was then incubated at 37°C in 5% CO2, and a humidified atmosphere after which the toxic effects of the extracts were assayed using the XTT (sodium 3’-[1-(phenyl amino-carbonyl)-3,4-tetrazolium]-bis-[4-methoxy-6-nitrobenzene sulfonic acid hydrate) cytotoxicity assay. […] The optical densities of the wells were measured at 450 nm (690 nm reference wavelength) using BIOTEK Power-wave XS multi well reader (A.D.P., Weltevreden Park, South Africa). By referring to the control (medium with DMSO), the cell survival rate was assessed.

[3] = system: Propionibacterium acnes (ATCC 11827); assay: Antibacterial activity, broth microdilution MIC (INT colour change); assay type: cell-based; details: P. acnes, 72 h anaerobic; for MIC: Cutibacterium acnes, ATCC11827, 72 h
Experimental: The ethanol extract and compounds were tested against P. acnes by determining the minimum inhibitory concentration (MIC) values obtained by a microdilution method as previously described with few modifications. Briefly, the bacteria was cultured from a Kwik-Stick on nutrient agar and incubated at 37°C for 72 h under anaerobic conditions before the assay. The 72 h culture of the bacteria was dissolved in nutrient broth and the suspension was adjusted to 0.5 McFarland standard turbidity. […] In a sterile 96-well plate, 100 μl of samples from the stock solution consisting of the plant extract/isolated compounds (2 mg/ml in 10% dimethyl sulphoxide (DMSO)) and the positive control tetracycline (0.2 mg/ml) were diluted with broth. Twofold serial dilutions were made in broth over a range to give concentrations of 500–3.9 μg/ml and 50–0.3 and μg/ml for the plant extract/ isolated compounds and positive control tetracycline, respectively. The bacterial suspension (100 μl) was then added to the wells. The wells with 2.5% DMSO and bacterial suspension without samples served as the solvent and negative controls, respectively. The plates were incubated at 37°C for 72 h in an anaerobic environment.

TNF α = TNF α release from U937 cells stimulated with heat-killed P. acnes (ELISA); assay type: cell-based, human; details: for Inhibitory ratio (%) TNF α: 18 h; for Suppression of TNF α release (range stated jointly for IL 8 and TNF α): abstract summary
Experimental: (§2) Briefly, the log phase culture of P. acnes was harvested, washed three times with phosphate buffer saline (PBS), and incubated at 80°C for 30 min to kill the bacteria. The heat-killed bacteria were stored at 4°C until use. […] Pentoxifylline was used as a control. […] Cytokine standards were serially diluted to facilitate the construction of calibration curves necessary for determining protein concentration after treatment with test samples. The ratio (%) of inhibition of the cytokine release was calculated using the following equation: […] Where T represents the concentration of the cytokine in the culture supernatant with the test sample, and C represents the concentration of cytokine in the culture supernatant with the solvent.

[4] = In vitro cytotoxicity assay (XTT), B16-F10; details: mouse
Experimental: as §1

U937 human macrophage = assay: In vitro cytotoxicity assay (XTT), U937; details: U937 cells
Experimental: as §1

IL 8 = IL 8 release from U937 cells stimulated with heat-killed P. acnes (ELISA); assay type: cell-based, human; details: for Inhibition of IL 8 in words: at the highest concentration tested; for Inhibitory ratio (%) IL 8: 18 h; for Suppression of IL 8 release (range stated jointly for IL 8 and TNF α): abstract summary
Experimental: as §2

[5] = system: B16-F10 mouse melanocytes; assay: In vitro cytotoxicity assay (XTT), B16-F10; details: B16-F10 cells
Experimental: as §1

[6] = system: vancomycin-resistant enterococci; parameters: method as in PMID 17541170; details: cited from earlier work
P. acnes [7] = system: P. acnes; parameters: method as in doi:10.1021/jf00030a036; details: cited from earlier work
P. acnes [8] = assay: Transmission electron microscopy of treated P. acnes; assay type: cell-based, Propionibacterium acnes; details: 50 μg/ml, 72 h
Experimental: The TEM procedures followed the protocol of a previous publication. Briefly, bacteria was concentrated by centrifugation at 10 000 rpm for 1 min. The pellet was resuspended in nutrient broth to a final OD550 nm of 1. […] The bacterial suspension (5 ml) was mixed with plant extract and pure compound to a final concentration of 300 and 100 μg/ml for plant extract and 50 μg/ml for pure compound. Tetracycline (50 μg/ml) and DMSO (2.5%) were used as positive and solvent control, respectively. The pathogen was treated for 72 h; the control group consisted of only bacterial suspension in nutrient broth. Treated and untreated P. acnes cultures were centrifuged and fixed in 2.5% glutraldehyde in phosphate buffer at room temperature for 1 h. Samples were washed with phosphate buffer and postfixed in both 1% osmium tetraoxide and uranyl acetate. The cells were dehydrated in ethanol and embedded in quetol resin. Thin sections were prepared with a microtome and micrographs were taken using a JEOL JEM-2100 F field emission electron microscope.

[9] = at the highest concentration tested

6-pentadecenylsalicylic acid
DPPH radical scavenging activity in words [1]: did not exhibit notable DPPH radical scavenging activity

O=C(O)c1cc(O)c(O)c(O)c1 [Gallic acid, gallic acid]
Antioxidant IC50 (DPPH antioxidant assay): 0.8 µg/mL | IC50 (DPPH antioxidant assay): 4.8 µM | Antioxidant Mg Vit C equivalents/g dry weight (DPPH antioxidant assay): 2444.9 Mg Vit C equivalents/g dry weight | EC50 [2]: 28.4 µg/mL and 169 µM | MIC ([3]; 37°C): > 500 µg/mL | Antibacterial MIC ([3]; 37°C): Na (not active at the highest concentration tested (500 μg/ml)) | Inhibition of TNF α in words (TNF α; [9]): suppressed TNF α drastically | EC50 [4]: 2.2 µg/mL and 13.1 µM

O=c1c(O)c(-c2cc(O)c(O)c(O)c2)oc2cc(O)cc(O)c12 [Myricetin, myricetin]
Antioxidant IC50 (DPPH antioxidant assay): 0.9 µg/mL | IC50 (DPPH antioxidant assay): 3 µM | Antioxidant Mg Vit C equivalents/g dry weight (DPPH antioxidant assay): 2105.0 Mg Vit C equivalents/g dry weight | Toxicity in words (U937 human macrophage): moderate toxicity | EC50 ([2]; U937 human macrophage cells): 19.3 µg/mL and 60 µM | Inhibition of IL 8 in words (IL 8): low inhibition | Inhibitory ratio (%) IL 8 (IL 8; final concentration 3.1 μg/ml): -0.5% | Inhibitory ratio (%) IL 8 (IL 8; final concentration 6.2 μg/ml): 10% | Inhibitory ratio (%) IL 8 (IL 8; final concentration 12.5 μg/ml): 34% | MIC ([3]; 37°C): > 500 µg/mL | Antibacterial MIC ([3]; 37°C): Na (not active at the highest concentration tested (500 μg/ml)) | Inhibition of TNF α in words (TNF α; [9]): moderately decreased | Inhibitory ratio (%) TNF α (TNF α; final concentration 3.1 μg/ml): -4.8% | Inhibitory ratio (%) TNF α (TNF α; final concentration 6.2 μg/ml): 27.1% | Inhibitory ratio (%) TNF α (TNF α; final concentration 12.5 μg/ml): 44.1% | Toxicity in words [5]: significant toxicity | EC50 ([4]; B16-F10 mouse melanocyte cells): 11.1 µg/mL and 35.1 µM

CC(=O)CCCCn1c(=O)c2c(ncn2C)n(C)c1=O [Pentoxifylline, reference compound]
Inhibitory ratio (%) IL 8 (IL 8; final concentration 10 μg/ml): -0.16% | Inhibitory ratio (%) IL 8 (IL 8; final concentration 50 μg/ml): -5.0% | Inhibitory ratio (%) IL 8 (IL 8; final concentration 100 μg/ml): -1.3% | Change in IL 8 concentration in words (IL 8; pentoxifylline control): no significant change | Inhibition of TNF α in words (TNF α; at 100 and 50 μg/ml): Very high inhibition | Inhibitory ratio (%) TNF α (TNF α; final concentration 10 μg/ml): 66.8% | Inhibitory ratio (%) TNF α (TNF α; final concentration 50 μg/ml): 99.7% | Inhibitory ratio (%) TNF α (TNF α; final concentration 100 μg/ml): 99.7%

CC(C)=CCC/C(C)=C/CC/C(C)=C/CC/C=C(\C)CC/C=C(\C)CCC=C(C)C [Squalene, squalene]
Antioxidant IC50 (DPPH antioxidant assay): >100 µg/mL | EC50 [2]: > 100 µg/mL | viability at 100 μg/ml [2]: 100% | MIC ([3]; 37°C): > 500 µg/mL | Antibacterial MIC ([3]; 37°C): Na (not active at the highest concentration tested (500 μg/ml)) | viability at 100 μg/ml ([4]; B16-F10 melanocyte cells): 100% | EC50 ([4]; B16-F10 mouse melanocyte cells): > 100 µg/mL

C[C@H]1[C@H](C)CC[C@]2(C(=O)O)CC[C@]3(C)C(=CC[C@@H]4[C@@]5(C)CC[C@H](O)C(C)(C)[C@@H]5CC[C@]43C)[C@H]12 [Ursolic acid, ursolic acid]
Toxicity in words (U937 human macrophage): moderately toxic | EC50 ([2]; U937 human macrophage cells): 38 µg/mL and 83.2 µM | MIC [6]: 4 µg/mL (≈ 8.76 µM) | Suppression of IL 8 release (range stated jointly for IL 8 and TNF α) (IL 8): 74 - 99% | Inhibition of IL 8 in words (IL 8): significant inhibition | MIC ([3]; 37°C): > 500 µg/mL | Antibacterial MIC ([3]; 37°C): Na (not active at the highest concentration tested (500 μg/ml)) | Suppression of TNF α release (range stated jointly for IL 8 and TNF α) (TNF α): 74 - 99% | Inhibition of TNF α in words (TNF α; [9]): significant inhibition

Cc1c2oc3c(C)ccc(C(=O)N[C@@H]4C(=O)N[C@H](C(C)C)C(=O)N5CCC[C@H]5C(=O)N(C)CC(=O)N(C)[C@@H](C(C)C)C(=O)O[C@@H]4C)c3nc-2c(C(=O)N[C@@H]2C(=O)N[C@H](C(C)C)C(=O)N3CCC[C@H]3C(=O)N(C)CC(=O)N(C)[C@@H](C(C)C)C(=O)O[C@@H]2C)c(N)c1=O [actinomycin D, reference compound] (I: T[dV]P[Sar][NMeV] / II: T[dV]P[Sar][NMeV]; ester I:1-I:C, II:1-II:C; linker I:N-II:N via Actinocin(9to1))
EC50 [2]: 0.0045 µg/mL (≈ 0.00358 µM) | EC50 [4]: 0.0045 µg/mL (≈ 0.00358 µM)

CCCCCCCCCCCCCCCc1cccc(O)c1C(=O)O [pentadecyl salicylic acid]
MIC (P. acnes [7]): 0.78 µg/mL (≈ 2.24 µM)

CN(C)[C@@H]1C(O)=C(C(N)=O)C(=O)[C@@]2(O)C(O)=C3C(=O)c4c(O)cccc4[C@@](C)(O)[C@H]3C[C@@H]12 [tetracycline, reference compound]
MIC ([3]; 37°C): 3.1 µg/mL | MIC ([3]; value in brackets): 7 µM | TEM: cell injury to P. acnes (P. acnes [8]): significant damages to the cells of P. acnes

O=C1O[C@H]([C@@H](O)CO)C(O)=C1O [vitamin C, reference compound]
Antioxidant IC50 (DPPH antioxidant assay): 1.9 µg/mL | IC50 (DPPH antioxidant assay): 11.3 µM

myricitrin
Antioxidant IC50 (DPPH antioxidant assay): 1.8 µg/mL | IC50 (DPPH antioxidant assay): 4 µM | Antioxidant Mg Vit C equivalents/g dry weight (DPPH antioxidant assay): 1081.0 Mg Vit C equivalents/g dry weight | Suppression of IL 8 release (range stated jointly for IL 8 and TNF α) (IL 8): 74 - 99% | Inhibition of IL 8 in words (IL 8): significant inhibition | Inhibitory ratio (%) IL 8 (IL 8; final concentration 10 μg/ml): 40.6% | Inhibitory ratio (%) IL 8 (IL 8; final concentration 50 μg/ml): 94.3% | Inhibitory ratio (%) IL 8 (IL 8; final concentration 100 μg/ml): 99.6% | Antibacterial MIC ([3]; 37°C): Na (not active at the highest concentration tested (500 μg/ml)) | Antibacterial MIC ([3]; 37°C, listed as myricitrin): > 500 µg/mL | Suppression of TNF α release (range stated jointly for IL 8 and TNF α) (TNF α): 74 - 99% | Inhibition of TNF α in words (TNF α; [9]): significant inhibition | Inhibitory ratio (%) TNF α (TNF α; final concentration 10 μg/ml): 32.8% | Inhibitory ratio (%) TNF α (TNF α; final concentration 50 μg/ml): 99.7% | Inhibitory ratio (%) TNF α (TNF α; final concentration 100 μg/ml): 99.7%

pentadecadienyl salicylic acid
MIC (P. acnes [7]): 0.78 µg/mL

pentadecatrienyl salicylic acid
MIC (P. acnes [7]): 0.78 µg/mL

pentadecenyl salicylic acid
MIC (P. acnes [7]): 0.78 µg/mL

Reference: paper PMC4228444 (BMC Complementary and Alternative Medicine, 2013)
